Results published in patent publication US20230302036A1, “COMPOSITIONS FOR TREATMENT OF SPINAL MUSCULAR ATROPHY” (priority 2020, published 2023).
Entries after “also recorded” stand apart in the source; their conditions may differ. Oligonucleotides are written 5' to 3', each unit as a sugar letter and its base; * is a phosphorothioate linkage, no mark a phosphodiester; rarer units and linkages stand in square brackets, end groups in braces. Plain capitals give the bases only. e = 2'-O-(2-methoxyethyl) (MOE); [5mC] = 5-methylcytosine

Columns and labels:
[1] = tested on: SMA mice (Smn-/-; SMN2 2TG/0); assay: Kaplan-Meier survival of severe SMA mice; type: in vivo, mouse; details: s.c. ASO1 at P0 and P1 and/or one s.c. VPA 10 µg/g
Experimental: Kaplan-Meier survival plot (FIG. 4A) and growth curves (FIG. 4B) of SMA mice, following subcutaneous administration at P0 and P1 of 16.8 µg ASO1 (n=18) or saline (n=14), one subcutaneous dose before P3 of 10 µg per g of body weight VPA (n=12), or both treatments together (n=20). ASO1-treated Smn^+/- heterozygote littermates (n=15) served as controls. Scramble (Ctrl) (n=12, 40 trials), VPA (n=13, 50 trials), ASO1 (n=11, 50 trials), ASO1 + VPA (n=17, 68 trials), and untreated heterozygotes (n=12, 36 trials). Statistical significance was analyzed by two-way repeated measures ANOVA. P < 0.05 was considered statistically significant; data are represented as mean + SD. In the righting-reflex test, the time it took a mouse to right itself […] on a flat surface was measured. In the grip-strength test, the angle at which the pups fell from a tablet with a rough to which they held on by their forelimbs was measured.
FIGS. 7A-H show ASO1 and TSA combined treatment in mice. Kaplan-Meier survival plot (FIG. 7A) and growth curves (FIG. 7B) of SMA mice after subcutaneous administration at P0 and P1 of 16.8 µg ASO1 (n=20) or vehicle (n=12), one subcutaneous dose of 10 µg per g of body weight TSA (n=15) at P2, or both treatments together (n=24), are shown. ASO1-treated heterozygotes (n=18) served as controls. Statistical significance was analyzed by two-way repeated measures ANOVA. P < 0.05 was considered statistically significant; data are represented as mean + SD.
All mouse protocols were in accordance with Cold Spring Harbor Laboratory’s Institutional Animal Care and Use Committee guidelines. The mild Hung mouse model (Smn^-^/-; SMN2^2TG/2TG) was the strain FVB.Cg-Smn1^tm1Hung Tg(SMN2)2^Hung/J, purchased from Jackson Laboratory (stock no. 005058). The severe SMA model (Smn^-/-; SMN2^2TG/0) was generated as previously described (Hua et al., Nature 478, 123-126, 2011).
Oligonucleotide solutions in saline were injected subcutaneously into the upper back at P0 and P1 with a […] and 33-gauge custom removable needle (Hamilton) as described (Hua et al., Nature 478, 123-126, 2011). All drugs were injected subcutaneously before P3, contralateral to the oligonucleotide-injection site, with TSA (10 mg/kg) or VPA (10 mg/kg) or vehicle. Mouse tissues and organs, including liver, thigh muscles, kidney, and spinal cord, were snap-frozen in liquid N2 and stored at -70° C.
Introduction of a human SMN2 transgene in an Smn^-/- background rescues embryonic lethality, displaying a range of phenotypes, depending on the SMN2 copy number (Hsieh-Li et al., Nat. Genet. 24, 66-70, 2000; Monani et al., Hum Mol Genet. 12; 333-339, 2000). […]

[2] = tested on: SMA mice; assay: Grip-strength test of P7 SMA mice; type: in vivo, mouse; details: untreated mutants ~35°
Experimental: ASO1-treated Smn^+/- heterozygote littermates (n=15) served as controls. Scramble (Ctrl) (n=12, 40 trials), VPA (n=13, 50 trials), ASO1 (n=11, 50 trials), ASO1 + VPA (n=17, 68 trials), and untreated heterozygotes (n=12, 36 trials). Statistical significance was analyzed by two-way repeated measures ANOVA. P < 0.05 was considered statistically significant; data are represented as mean + SD. […] In the grip-strength test, the angle at which the pups fell from a tablet with a rough to which they held on by their forelimbs was measured.
In the grip-strength test, the angle at which the pups fall from a tablet with a rough surface to which they hold on by their forelimbs was measured.

[3] = tested on: endogenous SMN2 E7 alternative splicing; assay: SMN2 E7 alternative splicing by radioactive RT-PCR in HEK293T cells; type: cell-based, human; details: HEK293T
Experimental: Alternative splicing was analyzed by radioactive RT-PCR followed by native polyacrylamide gel electrophoresis and autoradiography. Bars display means ± SD of percentage of the radioactivity in the FL band over the sum of radioactivity measurements in the FL and ΔE7 bands of at least three independent transfection experiments. A two-tailed Student’s t test was used to determine the significance between events. (FIG. 1A) HEK293T cells were co-transfected with the SMN2 minigene and expression vectors for WT^res and hC4 Pol II, followed by addition of α-amanitin. (FIG. 1B) Effect of camptothecin (CPT) on SMN2 E7 alternative splicing. HEK293T cells were incubated for at least 6 hours with 3 µM CPT. Combined effects on endogenous SMN2 E7 alternative splicing of transfection with 25 nM ASO1 and treatment with 3 µM TSA for 24 hr (FIG. 1C), 10 mM VPA for 24 hr (FIG. 1D), or 25 µM 5-AZA for 48 hr (FIG. 1E). Combined effects on HEK293T endogenous SMN2 E7 alternative splicing of transfection with 25 nM each of si-hnRNPA1 and si-hnRNPA2, and treatment with 3 µM TSA for 24 hr (FIG. 1F) or 10 mM VPA for 24 hr (FIG. 1G). […]
HEK293T, HeLa, and SMA type I homozygous and carrier fibroblasts 3813 and 3814 (Coriell Cell Repositories, Camden, New Jersey, United States) were grown in Dulbecco’s modified Eagle’s medium (DMEM) containing 4.5 g of glucose and 10% fetal bovine serum (Gibco) at 37° C. Cells were plated at a density of 2×10^5 cells per well in 12-well plates 24 hr before transfection. siRNA (25 nM), plasmid (500 ng), or ASO (25 nM) transfections were performed 24 hr after cells were plated, using 3 µl of Lipofectamine 2000 (Thermo Fisher Scientific) per well in 12-well plates. 24-48 h later, cells were treated with Trichostatin A (Sigma, T8552), Valproic Acid (Sigma, P4543), 5-Azacytidine (Sigma, A2385) or vehicle for the indicated time, and harvested for downstream procedures. […]

[4] = tested on: RNAPII (total, P-Ser5, P-Ser2) along the SMN2 gene; assay: ChIP-qPCR of RNAPII distribution along the SMN2 gene in HEK293T cells; type: cell-based, human
Experimental: (§1) H3K9me2 (FIG. 2B), total RNAPII (FIG. 2C), P-Ser5 RNAPII (FIG. 2D), and P-Ser2 RNAPII (FIG. 2E) distribution along the SMN2 gene, assessed by ChIP-qPCR in HEK293T cells transfected with the scramble oligo (CTRL) or ASO1 and treated with 10 mM VPA. Four independent immunoprecipitation replicates were conducted per experiment. Data are represented as mean ± S.D. (n = 4, *p < 0.05, two-tailed Student’s t test).
(§2) Total distribution of H3K9me2 (FIG. 3C), total RNAPII (FIG. 3D), P-Ser5 RNAPII (FIG. 3E), and P-Ser2 RNAPII (FIG. 3F) along the SMN2 gene is shown. This distribution was assessed by ChIP-qPCR in HEK293T cells transfected with the scramble oligo (CTRL) or ASO2 and treated with 10 mM VPA. Four independent immunoprecipitation replicates were conducted per experiment. Data are represented as mean ± S.D. (n = 4, *p < 0.05, two-tailed Student’s t test).
Approximately 2×10^6 HEK293T cells per sample were treated for 10 min in 1% (v/v) formaldehyde at room temperature to crosslink protein-DNA complexes. Crosslinking was stopped with glycine at a final concentration of 125 mM. Cells were washed twice with cold PBS and swelled on ice for 10 min in 25 mM HEPES pH 8, 1.5 mM MgCl2, 10 mM KCl, 0.1% NP-40, 1 mM DTT and 1× protease inhibitor cocktail set III (Calbiochem). Following Dounce homogenization, the nuclei were collected and resuspended in 1 ml sonication buffer (50 mM HEPES pH 8, 140 mM NaCl, 1 mM EDTA, 0.1% sodium deoxycholate, 0.1% SDS and 1× protease inhibitor cocktail). DNA was sonicated in an ultrasonic bath (Bioruptor Diagenode) to an average length of 200-500 bp. After addition of 1% (v/v) Triton X-100, samples were centrifuged at 15,000 ×g. Supernatants were immunoprecipitated O/N with 40 µl of pre-coated anti-IgG magnetic beads (Dynabeads M-280, Invitrogen) previously incubated with the antibody of interest for 6 hr at 4° C. The antibodies used were: rabbit anti-H3 (2 µg, Abcam ab1791), mouse anti-H3K9me2 (4 µg, Abcam ab1220), rabbit anti H3K9me3 (4 µg, Abcam ab8898), rabbit anti H3K9Ac (2 µg, Abcam ab4441), rabbit anti Rpb1 NTD (2 µg, Cell Signaling, D8L4Y), rabbit Phospho-Rpb1 CTD Ser2 (2 µg, Cell Signaling, E1Z3G), rabbit Phospho-Rpb1 CTD Ser5 (2 µg, Cell Signaling, D9N5I). Control immunoprecipitations were performed with rabbit IgG (1 µg, Abcam ab171870). Beads were washed sequentially for 5 min each in Low-salt (20 mM Tris-HCl pH 8, 150 mM NaCl, 2 mM EDTA, 1% Triton X-100, 0.1% SDS), High-Salt (20 mM Tris-HCl pH 8, 500 mM NaCl, 2 mM EDTA, 1% Triton X-100, 0.1% SDS) and LiCl buffer (10 mM Tris pH 8.0, 1 mM EDTA, 250 mM LiCl, 1% NP-40, 1% Na-deoxycholate) for 5 min at 4° C. and then twice in TE 1x for 2 min at room temperature. Beads were eluted in 1% SDS and 100 mM NaHCO3 buffer for 15 min at 65° C. and crosslinking was reversed for 6 hr after addition of NaCl to a final concentration of 200 mM. Chromatin was precipitated with ethanol overnight, treated with 20 µg proteinase K, and purified by phenol-chloroform extraction. Immunoprecipitated DNA (1.5 µl) and serial dilutions of the 10% input DNA (1:4, 1:20, 1: 100, and 1:500) were analyzed by SYBR-Green real-time qPCR.

[5] = tested on: SMA mice; assay: Righting reflex test of P7 SMA mice; type: in vivo, mouse; details: for righting reflex delay (in words): untreated mutant ~45 seconds
Experimental: Scramble (Ctrl) (n=12, 40 trials), VPA (n=13, 50 trials), ASO1 (n=11, 50 trials), ASO1 + VPA (n=17, 68 trials), and untreated heterozygotes (n=12, 36 trials). […] In the righting-reflex test, the time it took a mouse to right itself on its back on a flat surface was measured.
To complement the survival and weight-gain data, two noninvasive neuromuscular function tests, appropriate for mouse pups, were performed. In the righting reflex test, the time it takes a mouse to right itself when placed on its back on a flat surface was measured (Feather-Schussler et al., 2016).

[6] = tested on: H3K9me2 along the SMN2 gene; assay: ChIP-qPCR of H3K9me2 distribution along the SMN2 gene in HEK293T cells; type: cell-based, human
Experimental: as §1, §2
Approximately 2×10^6 HEK293T cells per sample were treated for 10 min in 1% (v/v) formaldehyde at room temperature to crosslink protein-DNA complexes. Crosslinking was stopped with glycine at a final concentration of 125 mM. Cells were washed twice with cold PBS and swelled on ice for 10 min in 25 mM HEPES pH 8, 1.5 mM MgCl2, 10 mM KCl, 0.1% NP-40, 1 mM DTT and 1× protease inhibitor cocktail set III (Calbiochem). Following Dounce homogenization, the nuclei were collected and resuspended in 1 ml sonication buffer (50 mM HEPES pH 8, 140 mM NaCl, 1 mM EDTA, 0.1% sodium deoxycholate, 0.1% SDS and 1× protease inhibitor cocktail). DNA was sonicated in an ultrasonic bath (Bioruptor Diagenode) to an average length of 200-500 bp. After addition of 1% (v/v) Triton X-100, samples were centrifuged at 15,000 ×g. Supernatants were immunoprecipitated O/N with 40 µl of pre-coated anti-IgG magnetic beads (Dynabeads M-280, Invitrogen) previously incubated with the antibody of interest for 6 hr at 4° C. The antibodies used were: rabbit anti-H3 (2 µg, Abcam ab1791), mouse anti-H3K9me2 (4 µg, Abcam ab1220), rabbit anti H3K9me3 (4 µg, Abcam ab8898), rabbit anti H3K9Ac (2 µg, Abcam ab4441), rabbit anti Rpb1 NTD (2 µg, Cell Signaling, D8L4Y), rabbit Phospho-Rpb1 CTD Ser2 (2 µg, Cell Signaling, E1Z3G), rabbit Phospho-Rpb1 CTD Ser5 (2 µg, Cell Signaling, D9N5I). Control immunoprecipitations were performed with rabbit IgG (1 µg, Abcam ab171870). […] Immunoprecipitated DNA (1.5 µl) and serial dilutions of the 10% input DNA (1:4, 1:20, 1: 100, and 1:500) were analyzed by SYBR-Green real-time qPCR.

Row | Molecule | survival (in words) [1] | grip strength, inclination angle at which pups fall [2] | effect of hnRNPA1/A2 depletion in promoting E7 inclusion upon HDAC inhibitor treatment ([3]; 25 nM each si-hnRNPA1 and si-hnRNPA2, no ASO1, 3 µM TSA or 10 mM VPA 24 hr) | RNAPII peak (total, P-Ser5, P-Ser2) in ASO1-transfected cells additionally treated with VPA ([4]; ASO1 plus 10 mM VPA) | roadblocks to elongation in ASO2-transfected cells treated with VPA ([4]; ASO2 plus 10 mM VPA) | righting reflex delay (in words) [5] | effect of VPA on ASO1-promoted H3K9me2 ([6]; HEK293T transfected with ASO1 and treated with 10 mM VPA) | H3K9me2 marks along the SMN2 gene ([6]; HEK293T, ASO transfection or 10 mM VPA) | median survival [1] | mice still alive at P50 [1] [%] | effect on SMN2 E7 inclusion, agent alone ([3]; 25 nM ASO, 3 µM TSA 24 hr, 25 µM 5-AZA 48 hr, 3 µM CPT) | P-Ser2 RNAPII density ([4]; ASO transfection vs scramble) | P-Ser5 RNAPII density ([4]; ASO transfection vs scramble) | total RNAPII density ([4]; ASO transfection vs scramble) | righting reflex, time to right [5] | H3K9 dimethylation, peak increase at the promoter and the alternative E7 areas ([6]; HEK293T transfected with ASO1 vs scramble oligo) [fold]
1 | CCCC(CCC)C(=O)O [VPA, valproic acid] | died before P10; also recorded: lack of an effect per se | ~ 30 ° | stronger | abolished | abolished | not significantly changed | completely abolished the ASO1 effect | reduced the H3K9me2 marks relative to the control |  |  |  |  |  |  |  | 
2 | ASO1: 5′-ATTCACTTTCATAATGCTGG-3′ 2′-O-methoxyethyl-modified oligonucleotide with phosphorothioate backbone and all 5-methyl cytosines; nusinersen variant with 2-nucleotide extension (antisense eA*eT*eT*e[5mC]*eA*e[5mC]*eT*eT*eT*e[5mC]*eA*eT*eA*eA*eT*eG*e[5mC]*eT*eG*eG) | significantly extended | ~ 45 ° |  |  |  | greatly reduced |  |  | ~ 20 days | 15 | promoted inclusion | greatly increased | greatly increased | greatly increased | ~ 10 seconds | 8
